Laboratory results: patent publication US20260132132A1, “3A,4,5,6-TETRAHYDRO-1 H-PYRAZOLO[3,4-C]PYRIDIN-7(7AH)-ONE DERIVATIVES AS FACTOR XIIA INHIBITORS” (KALVISTA PHARMACEUTICALS LIMITED, priority 2022, published 2026)

Assays:
[1] = molecular target: T1, Human Factor XIIa (hFXIIa) (Homo sapiens, UniProt P00748); assay: Determination of Human Factor XIIa (hFXIIa) inhibition, fluorogenic substrate IC50 assay; type: biochemical; conditions: fluorogenic substrate H-DPro-Phe-Arg-AFC at Km, 25° C., read-out: Human FXIIa IC50
T1 construct: purchased Enzyme Research Laboratories
T1 sequence (P00748 373-615 limits assumed): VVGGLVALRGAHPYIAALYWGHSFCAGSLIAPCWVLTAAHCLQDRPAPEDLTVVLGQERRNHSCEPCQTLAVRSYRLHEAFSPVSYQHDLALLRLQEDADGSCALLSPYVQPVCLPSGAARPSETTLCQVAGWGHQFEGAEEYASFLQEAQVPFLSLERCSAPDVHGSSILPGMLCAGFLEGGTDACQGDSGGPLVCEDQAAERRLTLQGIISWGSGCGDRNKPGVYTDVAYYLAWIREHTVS
T1 sequence (P00748 20-372 partner limits assumed): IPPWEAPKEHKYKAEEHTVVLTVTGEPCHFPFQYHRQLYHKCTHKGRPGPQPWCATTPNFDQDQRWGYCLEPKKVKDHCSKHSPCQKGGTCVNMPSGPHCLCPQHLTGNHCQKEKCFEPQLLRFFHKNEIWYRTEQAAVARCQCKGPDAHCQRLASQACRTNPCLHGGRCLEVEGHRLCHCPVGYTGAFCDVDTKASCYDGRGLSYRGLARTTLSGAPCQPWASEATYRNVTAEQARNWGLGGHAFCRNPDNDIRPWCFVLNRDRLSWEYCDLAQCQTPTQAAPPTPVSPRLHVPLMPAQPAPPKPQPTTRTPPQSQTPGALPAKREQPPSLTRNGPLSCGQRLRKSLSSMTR
Procedure: Determination of Human Factor XIIa (hFXIIa) inhibition
The Km for the cleavage of the substrate by hFXIIa was determined by standard transformation of the Michaelis-Menten equation, with subsequent inhibition assays performed at substrate Km concentration.

FXa = FXa (Homo sapiens, UniProt P00742); assay: Related protease inhibition: FXa, fluorogenic substrate; type: biochemical; conditions: fluorogenic substrate at Km, 25° C.; H1-H3 = % activity at 40 μM
Sequence of FXa (P00742 235-488 limits assumed): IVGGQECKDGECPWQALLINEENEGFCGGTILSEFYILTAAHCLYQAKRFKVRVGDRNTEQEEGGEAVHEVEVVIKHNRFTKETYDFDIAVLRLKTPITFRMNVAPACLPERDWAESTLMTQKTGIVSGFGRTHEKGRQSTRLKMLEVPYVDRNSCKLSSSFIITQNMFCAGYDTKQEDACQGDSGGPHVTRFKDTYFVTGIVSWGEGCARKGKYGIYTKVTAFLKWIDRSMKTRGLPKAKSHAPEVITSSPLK
Sequence of FXa (P00742 41-179 partner limits assumed): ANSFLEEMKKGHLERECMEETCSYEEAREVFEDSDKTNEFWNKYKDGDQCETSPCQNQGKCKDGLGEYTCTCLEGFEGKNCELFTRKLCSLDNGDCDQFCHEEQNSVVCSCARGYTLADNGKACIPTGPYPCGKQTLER
Procedure: Human serine protease enzyme Plasma Kallikrein, KLK1, FXa, Plasmin, Thrombin and Trypsin were assayed for enzymatic activity using an appropriate fluorogenic substrate at Km concentration, FXIa at fixed substrate concentration of 100 μM and various concentrations of the test compound.

Structure (SMILES) | IC50 [1] [µM] | IC50 (FXa) [µM]
CCNC(=O)c1nn(-c2cccc(Cl)c2)c2c1CCN(c1cccc(N3CCN(C)C3=O)c1)C2=O [Example 1364, 1-(3-chlorophenyl)-N-ethyl-6-(3-(3-methyl-2-oxoimidazolidin-1-yl)phenyl)-7-oxo-4,5,6,7-tetrahydro-1H-pyrazolo[3,4-c]pyridine-3-carboxamide] | 1 to 3 | > 40
CCNC(=O)c1nn(-c2cccc(Cl)c2)c2c1CCN(c1cccc(N3CCCC3=O)c1)C2=O [Example 1365, 1-(3-chlorophenyl)-N-ethyl-7-oxo-6-(3-(2-oxopyrrolidin-1-yl)phenyl)-4,5,6,7-tetrahydro-1H-pyrazolo[3,4-c]pyridine-3-carboxamide] | 1 to 3 | > 40
CCNC(=O)c1nn(-c2cccc(Cl)c2)c2c1CCN(c1cccc(N3CCCS3(=O)=O)c1)C2=O [Example 1366, 1-(3-chlorophenyl)-6-(3-(1,1-dioxidoisothiazolidin-2-yl)phenyl)-N-ethyl-7-oxo-4,5,6,7-tetrahydro-1H-pyrazolo[3,4-c]pyridine-3-carboxamide] | 3 to 10 | 10 to 40
CCNC(=O)c1nn(-c2cccc(Cl)c2)c2c1CCN(c1cccc(N3C(=O)CC4CC43)c1)C2=O (centres unmarked) [Example 1367, 1-(3-Chlorophenyl)-N-ethyl-7-oxo-6-(3-(3-oxo-2-azabicyclo[3.1.0]hexan-2-yl)phenyl)-4,5,6,7-tetrahydro-1H-pyrazolo[3,4-c]pyridine-3-carboxamide] | 0.3 to 1 | 10 to 40
CCNC(=O)c1nn(-c2cccc(Cl)c2)c2c1CCN(c1cccc(N3CC4CC4C3=O)c1)C2=O (centres unmarked) [Example 1368, 1-(3-chlorophenyl)-N-ethyl-7-oxo-6-(3-(2-oxo-3-azabicyclo[3.1.0]hexan-3-yl)phenyl)-4,5,6,7-tetrahydro-1H-pyrazolo[3,4-c]pyridine-3-carboxamide] | 1 to 3 | > 40
CCNC(=O)c1nn(-c2cccc(Cl)c2)c2c1CCN(c1cccc(N3CC4(CC4)N(C)C3=O)c1)C2=O [Example 1369, 1-(3-chlorophenyl)-N-ethyl-6-(3-(4-methyl-5-oxo-4,6-diazaspiro[2.4]heptan-6-yl)phenyl)-7-oxo-4,5,6,7-tetrahydro-1H-pyrazolo[3,4-c]pyridine-3-carboxamide] | 3 to 10 | > 40
Cc1cc(CNC(=O)c2nn(-c3cccc(Cl)c3)c3c2CCN(c2ccc4c(c2)C(=O)N(C)CC(=O)N4C)C3=O)n[nH]1 [Example 1370, 1-(3-chlorophenyl)-6-(1,4-dimethyl-2,5-dioxo-2,3,4,5-tetrahydro-1H-benzo[e][1,4]diazepin-7-yl)-N-((5-methyl-1H-pyrazol-3-yl)methyl)-7-oxo-4,5,6,7-tetrahydro-1H-pyrazolo[3,4-c]pyridine-3-carboxamide] | 0.3 to 1 | 10 to 40
CCNC(=O)c1nn(-c2cccc(Cl)c2)c2c1CCN(c1ccc3c(c1)C(=O)N(CC)CCO3)C2=O [Example 1371, 1-(3-chlorophenyl)-N-ethyl-6-(4-ethyl-5-oxo-2,3,4,5-tetrahydrobenzo[f][1,4]oxazepin-7-yl)-7-oxo-4,5,6,7-tetrahydro-1H-pyrazolo[3,4-c]pyridine-3-carboxamide] | 0.1 to 0.3 | 10 to 40
Cc1cc(CNC(=O)c2nn(-c3cccc(Cl)c3)c3c2CCN(c2ccc4c(c2)C(=O)N(C)CC(=O)N4C)C3=O)nn1C [Example 1372, 1-(3-chlorophenyl)-N-((1,5-dimethyl-1H-pyrazol-3-yl)methyl)-6-(1,4-dimethyl-2,5-dioxo-2,3,4,5-tetrahydro-1H-benzo[e][1,4]diazepin-7-yl)-7-oxo-4,5,6,7-tetrahydro-1H-pyrazolo[3,4-c]pyridine-3-carboxamide] | 0.3 to 1 | 10 to 40
Cc1cc(CNC(=O)c2nn(-c3cccc(Cl)c3)c3c2CCN(c2ccc4c(c2)C(=O)N(CCO)[C@H](C)CO4)C3=O)n[nH]1 [Example 1373, (R)-1-(3-chlorophenyl)-6-(4-(2-hydroxyethyl)-3-methyl-5-oxo-2,3,4,5-tetrahydrobenzo[f][1,4]oxazepin-7-yl)-N-((5-methyl-1H-pyrazol-3-yl)methyl)-7-oxo-4,5,6,7-tetrahydro-1H-pyrazolo[3,4-c]pyridine-3-carboxamide] | 0.3 to 1 | > 40
CCN1CCOc2ccc(N3CCc4c(C(=O)NCC5CC5)nn(-c5cccc(Cl)c5)c4C3=O)cc2C1=O [Example 1374, 1-(3-chlorophenyl)-N-(cyclopropylmethyl)-6-(4-ethyl-5-oxo-2,3,4,5-tetrahydrobenzo[f][1,4]oxazepin-7-yl)-7-oxo-4,5,6,7-tetrahydro-1H-pyrazolo[3,4-c]pyridine-3-carboxamide] | 0.1 to 0.3 | 10 to 40
CCNC(=O)c1nn(-c2cccc(Cl)c2)c2c1CCN(c1ccc3c(c1)C(=O)N(C)CC(=O)N3C)C2=O [Example 1375, 1-(3-chlorophenyl)-6-(1,4-dimethyl-2,5-dioxo-2,3,4,5-tetrahydro-1H-benzo[e][1,4]diazepin-7-yl)-N-ethyl-7-oxo-4,5,6,7-tetrahydro-1H-pyrazolo[3,4-c]pyridine-3-carboxamide] | 3 to 10 | > 40
Cc1ccncc1CNC(=O)c1nn(-c2cccc(Cl)c2)c2c1CCN(c1ccc3c(c1)C(=O)N(CCCO)CCO3)C2=O [Example 1376, 1-(3-chlorophenyl)-6-(4-(3-hydroxypropyl)-5-oxo-2,3,4,5-tetrahydrobenzo[f][1,4]oxazepin-7-yl)-N-((4-methylpyridin-3-yl)methyl)-7-oxo-4,5,6,7-tetrahydro-1H-pyrazolo[3,4-c]pyridine-3-carboxamide] | 0.01 to 0.1 | 3 to 10
Cc1cc(CNC(=O)c2nn(-c3cccc(Cl)c3)c3c2CCN(c2ccc4c(c2)C(=O)N(CCCO)CCO4)C3=O)nn1C [Example 1377, 1-(3-chlorophenyl)-N-((1,5-dimethyl-1H-pyrazol-3-yl)methyl)-6-(4-(3-hydroxypropyl)-5-oxo-2,3,4,5-tetrahydrobenzo[f][1,4]oxazepin-7-yl)-7-oxo-4,5,6,7-tetrahydro-1H-pyrazolo[3,4-c]pyridine-3-carboxamide] | 0.01 to 0.1 | 3 to 10
Cc1cc(CNC(=O)c2nn(-c3cccc(Cl)c3)c3c2CCN(c2ccc4c(c2)C(=O)N(CCO)[C@@H](C)CO4)C3=O)nn1C [Example 1379, (S)-1-(3-chlorophenyl)-N-((1,5-dimethyl-1H-pyrazol-3-yl)methyl)-6-(4-(2-hydroxyethyl)-3-methyl-5-oxo-2,3,4,5-tetrahydrobenzo[f][1,4]oxazepin-7-yl)-7-oxo-4,5,6,7-tetrahydro-1H-pyrazolo[3,4-c]pyridine-3-carboxamide] | 0.3 to 1 | 3 to 10
Cc1cc(CNC(=O)c2nn(-c3cccc(Cl)c3)c3c2CCN(c2ccc4c(c2)C(=O)N(CCO)[C@@H](C)CO4)C3=O)n[nH]1 [Example 1380, (S)-1-(3-chlorophenyl)-6-(4-(2-hydroxyethyl)-3-methyl-5-oxo-2,3,4,5-tetrahydrobenzo[f][1,4]oxazepin-7-yl)-N-((5-methyl-1H-pyrazol-3-yl)methyl)-7-oxo-4,5,6,7-tetrahydro-1H-pyrazolo[3,4-c]pyridine-3-carboxamide] | 0.3 to 1 | 10 to 40
CCNC(=O)c1nn(-c2cccc(Cl)c2)c2c1CCN(c1ccc3c(c1)C(=O)N(CCO)[C@@H](C)CO3)C2=O [Example 1381, (S)-1-(3-chlorophenyl)-N-ethyl-6-(4-(2-hydroxyethyl)-3-methyl-5-oxo-2,3,4,5-tetrahydrobenzo[f][1,4]oxazepin-7-yl)-7-oxo-4,5,6,7-tetrahydro-1H-pyrazolo[3,4-c]pyridine-3-carboxamide] | 1 to 3 | > 40
Cc1cc(CNC(=O)c2nn(-c3cccc(Cl)c3)c3c2CCN(c2ccc4c(c2)C(=O)N(CC(F)F)CCO4)C3=O)n[nH]1 [Example 1382, 1-(3-chlorophenyl)-6-(4-(2,2-difluoroethyl)-5-oxo-2,3,4,5-tetrahydrobenzo[f][1,4]oxazepin-7-yl)-N-((5-methyl-1H-pyrazol-3-yl)methyl)-7-oxo-4,5,6,7-tetrahydro-1H-pyrazolo[3,4-c]pyridine-3-carboxamide] | 0.01 to 0.1 | 3 to 10
Cc1cc(CNC(=O)CN2CCOc3ccc(N4CCc5c(C(=O)NCc6cc(C)n(C)n6)nn(-c6cccc(Cl)c6)c5C4=O)cc3C2=O)nn1C [Example 1383, 1-(3-chlorophenyl)-N-((1,5-dimethyl-1H-pyrazol-3-yl)methyl)-6-(4-(2-(((1,5-dimethyl-1H-pyrazol-3-yl)methyl)amino)-2-oxoethyl)-5-oxo-2,3,4,5-tetrahydrobenzo[f][1,4]oxazepin-7-yl)-7-oxo-4,5,6,7-tetrahydro-1H-pyrazolo[3,4-c]pyridine-3-carboxamide] | 0.01 to 0.1 | 3 to 10
